Consider six compounds from patent US8227502B2, “Amides acting on the adenosine receptors” (Anamar AB, priority 2006, dated 2012).

T1 sequence (P29274 whole entry): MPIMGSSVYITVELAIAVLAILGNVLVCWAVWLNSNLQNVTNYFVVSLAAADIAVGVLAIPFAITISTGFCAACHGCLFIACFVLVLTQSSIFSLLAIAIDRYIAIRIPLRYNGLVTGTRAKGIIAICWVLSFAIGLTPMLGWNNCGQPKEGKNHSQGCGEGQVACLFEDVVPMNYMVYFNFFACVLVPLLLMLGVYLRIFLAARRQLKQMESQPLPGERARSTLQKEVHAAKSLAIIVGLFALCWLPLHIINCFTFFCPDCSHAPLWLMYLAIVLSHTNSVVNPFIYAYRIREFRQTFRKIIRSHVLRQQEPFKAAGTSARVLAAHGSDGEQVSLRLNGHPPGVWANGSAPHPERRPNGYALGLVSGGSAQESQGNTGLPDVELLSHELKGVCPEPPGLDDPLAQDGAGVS

The first test addresses T1, adenosine A2A receptor (Homo sapiens, UniProt P29274).
T1 construct: from tissue
Description: Affinity for adenosine A2A receptor ([3H]CGS21680 binding, per Varani et al.).
Conditions: not given
The source says:
The affinity and functionality towards the adenosine A2A receptor was essentially performed as described by Varani et al. (Varani, Pharmacological and biochemical characterization of purified A2A adenosine receptors in human platelet membranes by [^3H]CGS21680 binding, Br. J. Pharmacol. 117:1693-1701, 1996), Table 1.
As for `NCCC(=O)N(CCc1c[nH]c2ccccc12)C(C(=O)NC1CCCCC1)c1ccccc1Br` (centres unmarked) [1:02, 3-Amino-N-[(2-bromo-phenyl)-cyclohexylcarbamoyl-methyl]-N-[2-(1H-indol-3-yl)-ethyl]-propionamide], the inhibition constant (Ki) came out at 1000 nM.
With `NCCC(=O)N(CCc1c[nH]c2ccccc12)C(C(=O)NC1CCCCC1)c1ccc(Br)cc1Br` (centres unmarked) [1:04, 3-Amino-N-[cyclohexylcarbamoyl-(2,4-dibromo-phenyl)-methyl]-N-[2-(1H-indol-3-yl)-ethyl]-propionamide], the half-inhibitory concentration (IC50) was 2840 nM and the Ki is 1600 nM.
Compound `NCCC(=O)N(CCc1c[nH]c2ccccc12)C(C(=O)NCc1ccccc1)c1ccc(Br)cc1Br` (centres unmarked) [1:09, 3-Amino-N-[benzylcarbamoyl-(2,4-dibromo-phenyl)-methyl]-N-[2-(1H-indol-3-yl)-ethyl]-propionamide] displayed an IC50 of 5110 nM and an inhibition constant (Ki) of 2870 nM.
The compound `NCCC(=O)N(CCc1c[nH]c2ccccc12)C(C(=O)Nc1ccccc1)c1ccccc1Br` (centres unmarked) [1:13, 3-Amino-N-[(2-bromo-phenyl)-phenylcarbamoyl-methyl]-N-[2-(1H-indol-3-yl)-ethyl]-propionamide] had a Ki of 60 nM.
`NCCC(=O)N(CCc1c[nH]c2ccccc12)C(C(=O)Nc1ccccc1)c1ccc(Br)cc1` (centres unmarked) [1:15, 3-Amino-N-[(4-bromo-phenyl)-phenylcarbamoyl-methyl]-N-[2-(1H-indol-3-yl)-ethyl]-propionamide] showed an IC50 of 243 nM and a Ki of 136 nM.
As for `NCCC(=O)N(CCc1c[nH]c2ccccc12)C(C(=O)Nc1ccccc1)c1ccc(Br)cc1Br` (centres unmarked) [Compound 1:16, 3-Amino-N-[(2,4-dibromo-phenyl)-phenylcarbamoyl-methyl]-N-[2-(1H-indol-3-yl)-ethyl]-propionamide], the IC50 worked out at 31.1 nM and the affinity, expressed as Ki, was 17.5 nM.

The next test has as its system antigen induced arthritis. Briefly: Antigen induced arthritis (AIA), knee joint swelling. It counts as in vivo. The note with it: rat, per oral administration, FIG. 1. An excerpt: Antigen Induced Arthritis (AIA) in the rat is a well reproducible monoarthritis model. An intraarticular injection of the antigen methylated bovine serum albumin (mBSA) in the knee joint in sensitised animals induces an inflammatory response. The formation of pannus tissue, which invades the synovium, spreads over the articular cartilage and grows into the bone, leading to tissue erosion and remodeling.
AIA responds well to compounds used for standard clinical treatment of human arthritis. Therefore this model is appropriate for the evaluation of the effects of new compounds on joint inflammation and cartilage/bone degradation. The test compounds can be administered locally or systemically. The features of the arthritis can be followed and evaluated by measuring knee joint swelling, by functional scoring and histological analysis. Since it is a monoarthritis model, the level of inflammatory serum markers may be difficult to detect. The AIA model also serves as a source for the production of synoviocytes for in vitro culturing, in order to gain further insight in the synovial matrix composition and for drug screening purposes.
In Antigen induced arthritis—for the effect on knee diameter of Compound 1:16 after per oral administration—see FIG. 1.
For the compound `NCCC(=O)N(CCc1c[nH]c2ccccc12)C(C(=O)Nc1ccccc1)c1ccc(Br)cc1Br` (centres unmarked) [Compound 1:16, 3-Amino-N-[(2,4-dibromo-phenyl)-phenylcarbamoyl-methyl]-N-[2-(1H-indol-3-yl)-ethyl]-propionamide], the “swelling of the knee (knee diameter)” value was “reduced the swelling of the knee”.
